Measurements from PMC7060351, “Biochemical features of the novel Tail Tubular Protein A of Yersinia phage phiYeO3-12” (Scientific Reports, 2020).

Tests used:
TTPAgp11 [1] = target: T1, TTPAgp11 (Yersinia phage phiYeO3-12, UniProt Q9T106); assay: GC of released glucose after MTBSTFA derivatisation; type: biochemical; settings: PBS, room temperature, 24 h; 20 µl of 47 µM protein, 100 µl of 1 mg/ml maltose in 0.2 ml
T1 construct: gene 11
T1 sequence (Q9T106 1-196): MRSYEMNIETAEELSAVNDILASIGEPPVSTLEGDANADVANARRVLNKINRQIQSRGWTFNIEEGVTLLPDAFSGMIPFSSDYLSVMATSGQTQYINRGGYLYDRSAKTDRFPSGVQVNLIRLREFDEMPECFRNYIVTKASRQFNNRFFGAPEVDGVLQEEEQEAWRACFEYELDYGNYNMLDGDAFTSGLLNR

TTPAgp11 [2] = target: T1, TTPAgp11; assay: backreflection light scattering during nanoDSF melting scan (aggregation); type: binding; settings: 0.25 mg/ml protein, 0.15 mg/ml sugar; 2 °C/min from 20 to 95 °C; no unfolding Tm obtained (NA); no scattering transition for protein alone (NA)
Source text: backreflection light scattering during nanoDSF melting scan (aggregation) on TTPAgp11

TTPAgp11 [3] = target: T1, TTPAgp11; assay: nanoDSF thermal unfolding ([…] nm ratio); type: binding; settings: 0.25 mg/ml protein, 0.15 mg/ml sugar; 2 °C/min from 20 to 95 °C; protein alone Tm 53.27 °C; inverted unfolding profile, aggregation

Question: `OC[C@H]1O[C@H](O[C@H]2[C@H](O)[C@@H](O)C(O)O[C@@H]2CO)[C@H](O)[C@@H](O)[C@@H]1O` (stereo partly drawn) [maltose] was tested. Which “% of maltose hydrolyzed” value (TTPAgp11 [1]) did it give?
Answer: The value was 15–18%.

Question: What about the “Tm / Scattering / [°C]” value (TTPAgp11 [2]) of the same compound?
Answer: Its value is 36.26 °C.

Question: With `CC(=O)N[C@H]1C(O)O[C@H](CO)[C@@H](O)[C@@H]1O` (stereo partly drawn) [N-acetylglucosamine] as the compound, how does the “Tm / Fluorescence ratio 350 nm/330 nm / [°C]” value (TTPAgp11 [3]) read?
Answer: The value was 36.41 °C.
